From patent US9833520B2, “Labeled, non-peptidic, multivalent integrin antagonist compounds; methods for synthesis and uses thereof” (The Methodist Hospital Research Institute, priority 2011, dated 2017)
“Also recorded” adds a separate entry of the source. Like-named read-outs stand apart in the source and are kept apart here.

Assays:
purified human αvβ3 = biological target: T1, purified human αvβ3 (Homo sapiens, UniProt P05106+P06756); assay: ELISA: competitive inhibition of biotinylated vitronectin binding to immobilized purified integrin αvβ3; conditions: for higher binding affinity as compared to monomer 1 (IA): compared to IA 1
T1 construct: purchased Chemicon International, Temecula, Calif., USA
Procedure: In vitro Binding Assay. […] Purified integrin αvβ3 protein (Chemicon International, Temecula, Calif., USA) was applied to 96-well polystyrene microtiter plates at 0.1 μg/well. After overnight incubation at 4° C., the plates were washed, and then blocked with milk solution (KPL, Inc. Gaithersburg, Md., USA) at room temperature for 2 hr. The blocking buffer was removed, and the plates were inoculated in quadruplicate with bivalent IAs with a typical starting concentration of 125 nM. Serial dilutions were prepared in the 96-well plates using multichannel pipettes. Biotinylated vitronectin solution (0.1 μg/well) was added to each well as a standard competitor. The plates were incubated at room temperature for 3 h, washed, and the bound vitronectin was detected using NeutrAvidin-HRP conjugate at 0.01 μg/well (Pierce, Rockford, Ill., USA) and LumiGlo® chemiluminescent substrate system (KPL, Inc.). The luminescence was read using a FLUOstar™ OPTIMA Microplate Reader (Durham, N.C., USA). […] (Peptides International, Inc., Louisville, Ky., USA) was also tested using the same method as described above.
Briefly, purified integrin αvβ3 protein (Chemicon International, Temecula, Calif., USA) was applied to 96-well polystyrene microtiter plates for overnight incubation at 4° C. The plates were washed and then blocked with milk solution (KPL, Inc., Gaithersburg, Md., USA) and the plates were inoculated in quadruplicate with multivalent IAs at different concentrations. Biotinylated vitronectin solution was added to each well as a standard competitor. The plates were incubated at room temperature, washed, and the bound vitronectin detected using NeutrAvidin-HRP® conjugate (Pierce, Rockford, Ill., USA) and LumiGlo® chemiluminescent substrate system (KPL, Inc., Gaithersburg, Md., USA). The luminescence was read using a FLUOstar® OPTIMA Microplate Reader (Durham, N.C., USA).
In vitro Binding Affinity Assay. Purified integrin αvβ3 protein (Chemicon International, Temecula, Calif., USA) was applied to 96-well polystyrene microtiter plates at 1 μg/well. After overnight incubation at 4° C., the plates were washed and then blocked with milk solution (KPL, Inc., Gaithersburg, Md., USA) at room temperature for 2 hr. The blocking buffer was removed, and the plates were inoculated in quadruplicate with bivalent IAs with a typical starting concentration of 125 nM. Serial dilutions were prepared in the 96-well plates using multichannel pipettes. Biotinylated vitronectin solution (0.1 μg/well) was added to each well as a standard competitor.
The plates were incubated at room temperature for 3 hr, washed, and the bound vitronectin was detected using NeutrAvidin-HRP conjugate at 0.01 μg/well (Pierce, Rockford, Ill., USA) and LumiGlo® chemiluminescent substrate system (KPL, Inc.). The luminescence was read using a FLUOstar OPTIMA Microplate Reader (Durham, N.C., USA). […] It measured competitive binding of the integrin antagonist and biotinylated human vitronectin for the immobilized receptor αvβ3.

[1] = tested on: U-87 MG (ATCC HTB-14) glioblastoma cells over-expressing integrin αvβ3; assay: Fluorescence microscopy probe binding assay in U-87 cells; type: cell-based, human; conditions: 200 nM, 37° C., 45 min, confocal microscopy
Procedure: Fluorescence Microscopy Studies. […] For fluorescence microscopy studies, 1×10^4 U-87 cells were cultured on 35 mm MatTek glass bottom culture dishes. After 24 hr, cells were washed with PBS and then incubated with bivalent-IA-Cy5.5 (200 nM) at 37° C. for 45 min. Integrin specificity of the probe binding was verified by incubating U-87 cells with and without a blocking dose of the non-fluorescent bivalent IA (20 μmol/L). After the incubation period, the cells were washed three times with ice-cold PBS. The fluorescence signal of the cells was recorded using FluoView® 1000 Laser Scanning Confocal Microscope (Olympus, Center Valley, Pa., USA) under a 40× oil-immersion objective, with laser excitation at 675 nm (Cy5.5). A differential interference contrast image was also recorded so that the origin of fluorescent signals could be confirmed.

U-87 xenograft tumors = assay: In vivo and ex vivo NIR fluorescence imaging of U-87 xenograft tumor-bearing mice
Procedure: U-87 MG Xenograft Model, Animal procedures were performed according to approved protocols. Female athymic nude mice (nu/nu), obtained from Charles River Laboratories, Inc. (Cambridge, Mass., USA) at 4-6 weeks of age, were injected subcutaneously in the right rear thigh with 1×10^7 U-87 MG cells suspended in 100 μL of phosphate-buffered saline (PBS). The cancer cells were harvested from sub-confluent cultures with 0.25% trypsin. Trypsinization was stopped with DMEM containing 10% FBS, after which the cells were washed once in serum-free medium and resuspended in PBS. Trypan blue exclusion was performed to ensure >90% cell viability. The tumor bearing mice were subjected to in vivo imaging studies when the tumors reached 0.4-0.6 cm in diameter.
In vivo Fluorescence Imaging of Tumors. ˜3×10^6 U-87 cells were implanted bilaterally in the posterior flanks of immunocompromised (nu/nu) mice and grown to ˜4 to 6 mm in diameter. Imaging was carried out in groups of five mice. After palpable masses were detected, animals were manually restrained and imaging probes were intravenously administered (lateral tail vein) using a 30-Ga needle via aseptic technique. Free Cy5.5 was prepared by dissolving the same Cy5.5NHS ester used for labeling the bivalent IA (GE Healthcare, Piscatway, N.J., USA) in phosphate buffered saline (PBS), pH 7.4 overnight at 4° C. Stock concentration of free Cy5.5 was measured optically using the molar extinction coefficient of 250000M-1 cm-1 using a UV-visible spectrophotometer at the maximum absorbance wavelength (675 nm) as recommended by the manufacturer. The bivalent-IA-Cy5.5 was weighed and confirmed by spectrophotometric measurement. Appropriate dilutions of each probe were made in PBS, pH 7.4, and each was filter sterilized (0.2-μm) immediately prior to use. All animals weighed between 18 and 20 g, and each received 10 nmol of imaging probe (in a total volume of 100 μL). Fluorescence imaging was performed with a small animal-dedicated optical imaging system (Xenogen/Caliper IVIS-200, Mountain View, Calif., USA) under continuous 1.5-2.0% isoflurane delivered through the integrated anesthesia nosecone system. At 2-, 4-, 7-, 24-, and 48-hrs' post-injection, images were acquired with the surface of the tissue of interest (tumor) approximating a perpendicular viewing angle relative to the camera line of sight; this viewing angle was also used for normal tissue selection.
For determining tumor contrast, mean fluorescence intensities of the tumor area (T) defined as radiance (photons/sec/cm2/sr) at the right rear leg of the animal and of the area (N) at the right flank (normal tissue) were calculated by region-of-interest (ROI) analysis using the corresponding photograph of each image acquisition dataset to identify the tumor region. Pre-injection imaging was also performed to determine baseline autofluorescence. For competitive inhibition studies, mice (n=3) were co-injected with 500 nmol bivalent IA and 10 nmol of imaging probe (bivalent-IA-Cy5.5) following the same procedure described above. Free Cy5.5 studies were performed in the same manner following the intravenous injection of 10 nmol. For ex vivo biodistribution imaging, two tumor-bearing mice were imaged 24 hrs post injection of bivalent-IA-Cy5.5 and thereafter euthanized per IACUC protocol (CO2 and cervical dislocation). Tumor and major internal organs (heart, lung, liver, spleen, gastrointestinal tract, and kidneys) were harvested, weighed, and imaged against a black paper background. All image acquisition parameters were as follows: epi-illumination; Cy5.5 Em/Ex; Bin: (HR)4, FOV: 12.9; f2; 0.2 sec.

[2] = Example 2, PEG-linked ligands, averages of at least three determinations, read-out: In vitro EL1SA IC50

SMILES: O=C(NCCS(=O)(=O)N[C@@H](CNC(=O)c1ccc(OCCNC2=NCCCN2)cc1)C(=O)O)OCCOCCOCCOC(=O)NCCS(=O)(=O)N[C@@H](CNC(=O)c1ccc(OCCNC2=NCCCN2)cc1)C(=O)O [Compound 3]
- IC50 (purified human αvβ3; [2]): 0.16 nM

SMILES: O=C(NCCS(=O)(=O)N[C@@H](CNC(=O)c1ccc(OCCNC2=NCCCN2)cc1)C(=O)O)OCCOCCOCCOCCOC(=O)NCCS(=O)(=O)N[C@@H](CNC(=O)c1ccc(OCCNC2=NCCCN2)cc1)C(=O)O [Compound 4]
- IC50 (purified human αvβ3; [2]): 0.16 nM

SMILES: O=C(NCCS(=O)(=O)N[C@@H](CNC(=O)c1ccc(OCCNC2=NCCCN2)cc1)C(=O)O)OCCOCCOCCOCCOCCOCCOCCOCCOC(=O)NCCS(=O)(=O)N[C@@H](CNC(=O)c1ccc(OCCNC2=NCCCN2)cc1)C(=O)O [Compound 5]
- IC50 (purified human αvβ3; [2]): 0.16 nM

SMILES: CC(C)(CNC(=O)OCCOCCOCCOC(=O)NCC(C)(C)COC(=O)NCCS(=O)(=O)N[C@@H](CNC(=O)c1ccc(OCCNC2=NCCCN2)cc1)C(=O)O)COC(=O)NCCS(=O)(=O)N[C@@H](CNC(=O)c1ccc(OCCNC2=NCCCN2)cc1)C(=O)O [Compound 6]
- IC50 (purified human αvβ3; [2]): 0.09 nM
- higher affinity as compared to the corresponding monomer 2 (purified human αvβ3; compared to IAC 2): ~23 fold

SMILES: CC(C)(CNC(=O)OCCOCCOCCOCCOC(=O)NCC(C)(C)COC(=O)NCCS(=O)(=O)N[C@@H](CNC(=O)c1ccc(OCCNC2=NCCCN2)cc1)C(=O)O)COC(=O)NCCS(=O)(=O)N[C@@H](CNC(=O)c1ccc(OCCNC2=NCCCN2)cc1)C(=O)O [Compound 7]
- IC50 (purified human αvβ3; [2]): 0.11 nM

SMILES: CC(C)(CNC(=O)OCCOCCOCCOCCOCCOCCOCCOCCOC(=O)NCC(C)(C)COC(=O)NCCS(=O)(=O)NC(CNC(=O)c1ccc(OCCNC2=NCCCN2)cc1)C(=O)O)COC(=O)NCCS(=O)(=O)NC(CNC(=O)c1ccc(OCCNC2=NCCCN2)cc1)C(=O)O (stereo not drawn) [Compound 8]
- IC50 (purified human αvβ3; [2]): 0.32 nM

SMILES: CC(C)(CN)COC(=O)NCCS(=O)(=O)N[C@@H](CNC(=O)c1ccc(OCCNC2=NCCCN2)cc1)C(=O)O [IAC 2]
- IC50 (purified human αvβ3; [2]): 2.07 nM
- higher binding affinity as compared to monomer 1 (IA) (purified human αvβ3): about 10 fold
- higher binding affinity as compared to monomer 1 (IA) (purified human αvβ3; listed as 2): 10 fold

SMILES: CC[N+]1=C(/C=C/C=C/C=C2/N(CCCCCC(=O)NC(CCCCCC(=O)NCCS(=O)(=O)N[C@@H](CNC(=O)c3ccc(OCCNC4=NCCCN4)cc3)C(=O)O)C(=O)NCCS(=O)(=O)N[C@@H](CNC(=O)c3ccc(OCCNC4=NCCCN4)cc3)C(=O)O)c3ccc4c(S(=O)(=O)O)cc(S(=O)(=O)O)cc4c3C2(C)C)C(C)(C)c2c1ccc1c(S(=O)(=O)[O-])cc(S(=O)(=O)O)cc21 (stereo partly drawn) [bivalent-IA-Cy5.5]
- IC50 (purified human αvβ3; Example 1 bivalent IA study, FIG. 4, read-out: IC50 of vitronectin binding to αvβ3 (ELISA)): 0.13 ± 0.02 nM
- endocytosis / binding of probe in U-87 cells [1]: endocytosis of the imaging probes; also recorded: integrin-mediated endocytosis
- endocytosis / binding of probe in U-87 cells ([1]; listed as Bivalent-IA-Cy5.5 conjugate): Receptor-mediated endocytosis was observed
- endocytosis / binding of probe in U-87 cells ([1]; listed as bivalent-IA-Cy5.5 conjugate): integrin-mediated endocytosis
- tumor fluorescence signal / accumulation (U-87 xenograft tumors; 10 nmol i.v.): increased signal in tumor sites at 7, 24, and 48 hrs; also recorded: modest accumulation at the tumor site
- tumor-to-normal tissue (T/N) fluorescence ratio, average maximum (U-87 xenograft tumors; 10 nmol i.v., plateau at 24 hr, n=5): ~1.84
- ex vivo signal per mass of tissue (biodistribution) (U-87 xenograft tumors; 24 hrs post-injection, two animals): The highest signal per mass of tissue was observed for the tumor
- blood-pool / circulation clearance rate (U-87 xenograft tumors; inferred from fluorescence): relatively slow blood-pool clearance rate; also recorded: relatively slow clearance of the probe from the circulation
- route of clearance (U-87 xenograft tumors; inferred from kidney fluorescence signal, 24 hrs): mainly renal clearance
- hepatic metabolism (U-87 xenograft tumors; inferred from minimal liver signal, 24 hrs): low hepatic metabolism

SMILES: CCN1\C(=C/C=C/C=C/C2=[N+](CCCCCC(=O)O)c3ccc4c(S(=O)(=O)O)cc(S(=O)(=O)O)cc4c3C2(C)C)C(C)(C)c2c1ccc1c(S(=O)(=O)[O-])cc(S(=O)(=O)O)cc21 [free Cy5.5, reference compound]
- tumor fluorescence signal / accumulation (U-87 xenograft tumors; 10 nmol i.v.): slightly higher than the background but is lower than that achieved with the bivalent-IA-Cy5.5
